In patent US8030300B2, “Ligands for nicotinic acetylcholine receptors, and methods of making and using them” (priority 2003, dated 2011):

Tests used:
[1] = background b17; approximate; cited from earlier work
[2] = system: receptors in rat forebrain (mainly α4β2); assay: biochemical; assay type: binding; conditions: Table 3; ratio of the corresponding Ki values
[3] = biological target: T1, receptors in rat forebrain (mainly α4β2) (Rattus norvegicus, UniProt P09483+P12390); assay: biochemical; assay type: binding; conditions: Table 3; mean of 3 independent measurements; read-out: Ki Forebrain
T1 construct: from tissue; host or cells: rat forebrain homogenate

α4β4 nAChR subtype = biological target: T2, α4β4 nAChR subtype (Rattus norvegicus, UniProt P09483+P12392); assay: biochemical; assay type: binding; conditions: Table 3; mean of 3 independent measurements; read-out: Ki α4β4
T2 construct: expressed in transfected cells
From the text: (§1) In order to assess the steric and hydropathic effects of the C-5 substituents of the pyridine on the binding affinity and subtype-selectivity at neuronal nicotinic acetylcholine receptors. […] The binding affinity ratios for a ligand, calculated from its affinities at an α subunit paired with either the β2 osubunit or the β4 subunit, represents a measure of the selectivity of that ligand with regard to the β subunits.

α4β2 nAChR subtype = biological target: T3, α4β2 nAChR subtype (Rattus norvegicus, UniProt P09483+P12390); assay: biochemical; assay type: binding
T3 construct: expressed in transfected cells
From the text: as §1

α2β4 nAChR subtype = biological target: T4, α2β4 nAChR subtype (Rattus norvegicus, UniProt P12389+P12392); assay: biochemical; assay type: binding; conditions: Table 3; mean of 3 independent measurements; read-out: Ki α2β4
T4 construct: expressed in transfected cells
From the text: as §1

α3β2 nAChR subtype = biological target: T5, α3β2 nAChR subtype (Rattus norvegicus, UniProt P04757+P12390); assay: biochemical; assay type: binding; conditions: Table 3; mean of 3 independent measurements; read-out: Ki α3β2
T5 construct: expressed in transfected cells
From the text: as §1

α2β2 nAChR subtype = biological target: T6, α2β2 nAChR subtype (Rattus norvegicus, UniProt P12389+P12390); assay: biochemical; assay type: binding; conditions: Table 3; mean of 3 independent measurements; read-out: Ki α2β2
T6 construct: expressed in transfected cells
From the text: as §1

α3β4 nAChR subtype = biological target: T7, α3β4 nAChR subtype (Rattus norvegicus, UniProt P04757+P12392); assay: biochemical; assay type: binding; conditions: Table 3; mean of 3 independent measurements; read-out: Ki α3β4
T7 construct: expressed in transfected cells
From the text: as §1

T3 sequence (P12390 25-500): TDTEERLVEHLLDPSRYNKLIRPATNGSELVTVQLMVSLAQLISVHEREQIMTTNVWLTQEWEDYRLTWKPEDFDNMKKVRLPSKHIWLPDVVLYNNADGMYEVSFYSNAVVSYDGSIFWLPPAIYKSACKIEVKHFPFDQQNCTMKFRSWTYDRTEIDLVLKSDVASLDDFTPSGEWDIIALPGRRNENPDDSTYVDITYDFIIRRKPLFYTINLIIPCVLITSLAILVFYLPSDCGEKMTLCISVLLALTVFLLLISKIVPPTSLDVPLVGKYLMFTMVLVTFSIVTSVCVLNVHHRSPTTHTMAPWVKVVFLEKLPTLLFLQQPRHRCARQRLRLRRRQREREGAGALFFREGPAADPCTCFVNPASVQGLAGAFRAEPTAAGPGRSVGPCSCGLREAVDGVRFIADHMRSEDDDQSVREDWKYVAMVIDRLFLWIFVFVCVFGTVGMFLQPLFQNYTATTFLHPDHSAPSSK
T3 sequence (P09483 31-630): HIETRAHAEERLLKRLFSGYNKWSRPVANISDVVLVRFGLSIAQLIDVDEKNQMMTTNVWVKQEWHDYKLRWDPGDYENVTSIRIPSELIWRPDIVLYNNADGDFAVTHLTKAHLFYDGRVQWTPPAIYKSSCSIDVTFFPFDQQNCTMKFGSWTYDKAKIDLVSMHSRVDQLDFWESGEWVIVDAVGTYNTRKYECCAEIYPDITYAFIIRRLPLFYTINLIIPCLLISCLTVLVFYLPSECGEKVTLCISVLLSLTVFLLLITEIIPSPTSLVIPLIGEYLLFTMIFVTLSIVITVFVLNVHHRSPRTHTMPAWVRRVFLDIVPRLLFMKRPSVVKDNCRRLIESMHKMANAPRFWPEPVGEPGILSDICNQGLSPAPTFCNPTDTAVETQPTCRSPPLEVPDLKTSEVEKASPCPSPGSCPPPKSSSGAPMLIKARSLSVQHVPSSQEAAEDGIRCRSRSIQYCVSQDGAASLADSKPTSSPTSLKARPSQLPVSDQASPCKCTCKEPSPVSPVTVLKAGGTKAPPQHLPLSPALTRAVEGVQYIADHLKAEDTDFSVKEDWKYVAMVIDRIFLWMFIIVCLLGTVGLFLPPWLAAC
T4 sequence (P12389 28-511): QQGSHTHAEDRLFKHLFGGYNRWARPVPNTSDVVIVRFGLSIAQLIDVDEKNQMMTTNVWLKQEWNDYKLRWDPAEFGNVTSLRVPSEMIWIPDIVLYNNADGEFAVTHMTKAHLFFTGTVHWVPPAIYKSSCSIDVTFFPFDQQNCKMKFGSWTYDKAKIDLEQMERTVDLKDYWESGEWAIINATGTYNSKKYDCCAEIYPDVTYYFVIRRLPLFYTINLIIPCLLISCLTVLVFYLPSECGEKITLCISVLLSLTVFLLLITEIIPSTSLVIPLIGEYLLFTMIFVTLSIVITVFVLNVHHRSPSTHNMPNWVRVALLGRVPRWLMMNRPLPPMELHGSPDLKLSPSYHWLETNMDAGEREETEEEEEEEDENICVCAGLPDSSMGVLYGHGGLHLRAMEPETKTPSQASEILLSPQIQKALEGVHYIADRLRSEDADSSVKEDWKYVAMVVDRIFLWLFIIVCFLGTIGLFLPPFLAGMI
T4 sequence (P12392 21-495): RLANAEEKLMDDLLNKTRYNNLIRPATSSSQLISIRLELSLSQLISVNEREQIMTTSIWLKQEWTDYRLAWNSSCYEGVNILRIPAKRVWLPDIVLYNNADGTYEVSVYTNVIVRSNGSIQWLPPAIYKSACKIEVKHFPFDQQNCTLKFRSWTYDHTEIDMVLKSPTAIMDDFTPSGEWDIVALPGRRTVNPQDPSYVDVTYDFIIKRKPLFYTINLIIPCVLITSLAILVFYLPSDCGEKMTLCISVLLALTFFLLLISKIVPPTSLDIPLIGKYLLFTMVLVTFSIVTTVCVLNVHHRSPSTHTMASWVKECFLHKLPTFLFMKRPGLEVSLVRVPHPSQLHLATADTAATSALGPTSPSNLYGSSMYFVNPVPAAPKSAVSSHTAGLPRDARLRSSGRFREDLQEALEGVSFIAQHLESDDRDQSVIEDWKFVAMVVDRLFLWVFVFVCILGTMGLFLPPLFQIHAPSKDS
T1 sequence (P09483 31-630): as the sequence (P09483 31-630) above
T1 sequence (P12390 25-500): as the sequence (P12390 25-500) above
T6 sequence (P12390 25-500): as above
T6 sequence (P12389 28-511): as the sequence (P12389 28-511) above
T5 sequence (P12390 25-500): as the sequence (P12390 25-500) above
T5 sequence (P04757 26-499): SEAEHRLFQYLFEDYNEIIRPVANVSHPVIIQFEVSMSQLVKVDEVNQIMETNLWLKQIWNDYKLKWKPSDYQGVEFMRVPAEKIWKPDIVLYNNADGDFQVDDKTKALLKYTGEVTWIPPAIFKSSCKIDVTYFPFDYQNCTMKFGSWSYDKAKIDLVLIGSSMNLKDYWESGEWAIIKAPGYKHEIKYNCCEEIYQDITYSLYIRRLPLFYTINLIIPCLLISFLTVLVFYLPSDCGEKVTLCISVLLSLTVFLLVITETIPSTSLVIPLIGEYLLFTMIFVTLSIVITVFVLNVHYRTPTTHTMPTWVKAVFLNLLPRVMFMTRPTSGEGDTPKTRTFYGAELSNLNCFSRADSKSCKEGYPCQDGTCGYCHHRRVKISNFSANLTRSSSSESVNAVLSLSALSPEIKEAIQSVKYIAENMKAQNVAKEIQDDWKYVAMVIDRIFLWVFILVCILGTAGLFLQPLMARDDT
T7 sequence (P04757 26-499): as above
T7 sequence (P12392 21-495): as the sequence (P12392 21-495) above
T2 sequence (P12392 21-495): as above
T2 sequence (P09483 31-630): as the sequence (P09483 31-630) above

Structure (SMILES)	analgesic potency, times that of morphine [1] [times]	Affinity ratio (α3β4/Forbrain) [2]	Ki [3] [nM]	Ki (α4β4 nAChR subtype) [nM]	Ki (α4β2 nAChR subtype; Table 3, mean of 3 independent measurements, read-out: Ki α4β2) [nM]	more selective for α4β2 over α3β4 than the corresponding parent compounds 7, 8, and 2 (α4β2 nAChR subtype; text b210)	Ki (α2β4 nAChR subtype) [nM]	Ki (α3β2 nAChR subtype) [nM]	Ki (α2β2 nAChR subtype) [nM]	Ki (α3β4 nAChR subtype) [nM]
Clc1ccc(C2CC3CCC2N3)cn1 (racemic) [Epibatidine, 2-exo-(2-Chloro-5-pyridyl)-7-azabicyclo[2.2.1]heptane]	~500									
OCCCCC#Cc1cncc(OC[C@@H]2CCCN2)c1 [Ligand 27]		14,000	1.15	778	0.665	2 orders of magnitude	835	2.69	1.51	16100
